Results on 3 compounds are retold here after patent US5665745A, “Heterocyclic compounds and their preparation and use” (Eli Lilly and Company, priority 1995, dated 1997).

As a reminder, the IC50 is the concentration needed to halve the response being measured. Higher therefore signals a need for much substance.

Where two headings read alike, the source gives them in different places.

In experiment [1] the test system is M2 -sites. As to conditions: background statement; cited from earlier work.
Experiment [2] deals with M1 -sites. As to conditions: background statement; cited from earlier work.
Experiment [3] concerns the target muscarinic receptor in the CNS. As to conditions: cited from earlier work.
Experiment [4] addresses T1, muscarinic receptors (M1 -site, pirenzepine sensitive site) (Rattus norvegicus, UniProt P08482).
T1 construct: from tissue; host or cells: cerebral cortex membranes of male Wistar rats
T1 sequence (P08482 1-460): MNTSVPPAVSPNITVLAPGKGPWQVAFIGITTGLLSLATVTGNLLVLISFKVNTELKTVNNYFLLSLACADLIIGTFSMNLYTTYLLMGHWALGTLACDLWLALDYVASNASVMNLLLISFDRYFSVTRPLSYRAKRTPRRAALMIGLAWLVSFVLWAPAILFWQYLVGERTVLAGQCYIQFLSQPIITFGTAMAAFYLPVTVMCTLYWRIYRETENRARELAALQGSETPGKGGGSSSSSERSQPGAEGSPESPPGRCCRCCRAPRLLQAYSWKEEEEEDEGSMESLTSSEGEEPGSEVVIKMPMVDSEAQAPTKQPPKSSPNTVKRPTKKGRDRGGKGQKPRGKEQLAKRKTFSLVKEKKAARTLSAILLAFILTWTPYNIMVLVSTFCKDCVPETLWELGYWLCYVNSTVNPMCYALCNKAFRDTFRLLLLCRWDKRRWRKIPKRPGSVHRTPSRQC
The experiment can be described thus: inhibition of ^3 HPRZ (pirenzepine, [N-methyl-^3 H]) binding to rat cerebral cortex membranes. Set-up: species or system rat (male Wistar. In outline: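 Male Wistar rat cortex membranes in 20 mM Hepes pH 7.4 were incubated with 1.0 nM (final) [3H]pirenzepine for 60 min at 20° C; nonspecific binding was defined with 1 μg/mL atropine. Filtration and scintillation counting were used, and IC50 was calculated from a single concentration assuming mass-action kinetics.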

Experiment [5] concerns the target muscarinic acetylcholine receptors. The experiment can be described thus: inhibition of specific binding of ^3 H-Oxotremorine-M (^3 H-Oxo). Set-up: species or system rat (male Wistar. Conditions: ^3 H-Oxotremorine 1.0 nM, rat cortex, 30 min. at 25° C. In outline:
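Rat cortex membranes (male Wistar) in 20 mM Hepes pH 7.4 incubated with 1.0 nM ^3H-Oxotremorine-M (final) and test compound for 30 min at 25 °C; arecoline defines non-specific binding. Bound radioactivity by filtration and scintillation counting; IC50 (nM) from a single concentration via Co/Cx mass-action formula, reflecting high- and medium-affinity sites.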

As to `CN1CCN(CC(=O)N2c3ccccc3C(=O)Nc3cccnc32)CC1` [pirenzepine], in experiment [1], the “interaction with M2 -sites” value is “also interact with M2 -sites”. Further, the “selectivity for muscarinic receptor subtype” value in experiment [2] is reported as “selective for M1 -sites”.

As for `C[N+](C)(C)CC#CCN1CCCC1=O` [^3 H-Oxo], the Kd was 1.8 nM in experiment [3] (first of three sites labeled (high affinity)); 20 nM in experiment [3] (second of three sites labeled (medium affinity)); 3000 nM in experiment [3] (third of three sites labeled, read-out: affinity).

For the compound `CCCOc1nsnc1OC1CN2CCC1CC2` (racemic) [Compound 7, (±)-3-propyloxy-4-(1-azabicyclo[2.2.2]octyl-3-oxy)-1,2,5-thiadiazole], the IC50 in experiment [4] was 26 nM; in experiment [5], 10.7 nM.
